Source: patent US20250171462A1 (NICO Therapeutics, Inc., priority 2022, published 2025)
Where two headings read alike, the source gives them in different places.

Molecular target: T1, full-length SARM1 (FL-SARM1) (Homo sapiens, UniProt Q6SZW1)
T1 sequence (Q6SZW1 28-724): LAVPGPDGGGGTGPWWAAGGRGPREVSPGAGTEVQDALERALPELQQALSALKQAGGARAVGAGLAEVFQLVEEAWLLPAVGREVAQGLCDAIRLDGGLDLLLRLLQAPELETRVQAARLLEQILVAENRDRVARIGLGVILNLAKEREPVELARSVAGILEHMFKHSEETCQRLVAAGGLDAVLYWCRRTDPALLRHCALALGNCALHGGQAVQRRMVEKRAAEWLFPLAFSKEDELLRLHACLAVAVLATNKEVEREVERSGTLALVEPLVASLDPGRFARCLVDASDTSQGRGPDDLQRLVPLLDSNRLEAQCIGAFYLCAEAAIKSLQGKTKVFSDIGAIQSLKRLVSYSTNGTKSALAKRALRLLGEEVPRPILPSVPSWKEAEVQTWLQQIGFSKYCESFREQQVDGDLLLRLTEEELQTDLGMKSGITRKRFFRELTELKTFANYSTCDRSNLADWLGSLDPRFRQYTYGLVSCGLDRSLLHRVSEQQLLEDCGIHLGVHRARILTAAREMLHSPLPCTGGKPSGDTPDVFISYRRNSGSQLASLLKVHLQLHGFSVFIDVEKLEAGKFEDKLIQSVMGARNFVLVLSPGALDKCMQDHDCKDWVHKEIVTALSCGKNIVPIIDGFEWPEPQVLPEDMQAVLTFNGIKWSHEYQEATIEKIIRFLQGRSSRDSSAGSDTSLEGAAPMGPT
Test: FL-SARM1 cellular lysate assay (NAD/NADH-Glo detection of remaining NAD+, NMN-activated)

[1] = Activity (μM) (IC50), 11 point curve
[2] = read-out: Activity (IC50 class), 11 point curve
[3] = Activity (IC50 class), 11 point curve

In the case of `Cc1cc(F)c(NC(=O)N2[C@@H]3C[C@@H](C)C[C@H]2C3)cc1-c1cccnn1` [Example 256, cis-N-(2-fluoro-4-methyl-5-pyridazin-3-ylphenyl)-3-methyl-6-azabicyclo[3.1.1]heptane-6-carboxamide], the IC50 [1] is reported as 0.1 µM and the IC50 [2] is reported as 0.0001 to 1 µM.

`Cc1ccc(NC(=O)[C@H]2C[C@H]3C[C@H]3N2Cc2ncccn2)cc1-c1ncc(F)cn1` [Example 261] was tested, and the IC50 [3] was > 10 µM and the IC50 [1] was 34 µM.

For `Cc1ccc(NC(=O)[C@H]2C[C@H]3C[C@H]3N2c2nccnn2)cc1-c1ncc(F)cn1` [Example 262, (1R,3R,5R)-N-(3-(5-fluoropyrimidin-2-yl)-4-methylphenyl)-2-(1,2,4-triazin-3-yl)-2-azabicyclo[3.1.0]hexane-3-carboxamide], the IC50 [3] was 1 to 10 µM and the IC50 [1] was 2.5 µM.

`Cc1ccc(NC(=O)[C@H]2C[C@H]3C[C@H]3N2c2ncc(Cl)nn2)cc1-c1ncc(F)cn1` [Example 263, (1R,3R,5R)-2-(6-chloro-1,2,4-triazin-3-yl)-N-[3-(5-fluoropyrimidin-2-yl)-4-methylphenyl]-2-azabicyclo[3.1.0]hexane-3-carboxamide] showed an IC50 [3] of 1 to 10 µM and an IC50 [1] of 1.8 µM.

`Cc1ccc(NC(=O)[C@H]2C[C@H]3C[C@H]3N2c2cnccn2)cc1-c1ncc(F)cn1` [Example 264, (1R,3R,5R)-N-[3-(5-fluoropyrimidin-2-yl)-4-methylphenyl]-2-pyrazin-2-yl-2-azabicyclo[3.1.0]hexane-3-carboxamide] gave an IC50 [3] of 1 to 10 µM and an IC50 [1] of 1.1 µM.

For `Cc1ccc(NC(=O)[C@H]2C[C@H]3C[C@H]3N2c2ccncn2)cc1-c1ncc(F)cn1` [Example 265, (1R,3R,5R)-N-[3-(5-fluoropyrimidin-2-yl)-4-methylphenyl]-2-pyrimidin-4-yl-2-azabicyclo[3.1.0]hexane-3-carboxamide], the IC50 [3] was 1 to 10 µM and the IC50 [1] was 1.9 µM.

`Cc1ccc(NC(=O)[C@H]2C[C@H]3C[C@H]3N2c2ncccn2)cc1-c1ncccn1` [Example 266, (1R,3R,5R)-N-(4-methyl-3-pyrimidin-2-ylphenyl)-2-pyrimidin-2-yl-2-azabicyclo[3.1.0]hexane-3-carboxamide] gave an IC50 [3] of 1 to 10 µM and an IC50 [1] of 4.2 µM.

`Cc1ccc(NC(=O)[C@H]2C[C@H]3C[C@H]3N2c2ncccn2)cc1-c1ncc(F)cn1` [Example 267, (1R,3R,5R)-N-[3-(5-fluoropyrimidin-2-yl)-4-methylphenyl]-2-pyrimidin-2-yl-2-azabicyclo[3.1.0]hexane-3-carboxamide] showed an IC50 [3] of 1 to 10 µM and an IC50 [1] of 3.1 µM.

In the case of `Cc1ccc(NC(=O)[C@@H]2C[C@@H]3C[C@@H]3N2c2ncccn2)cc1-c1ncc(F)cn1` [Example 268, (1S,3S,5S)-N-[3-(5-fluoropyrimidin-2-yl)-4-methylphenyl]-2-pyrimidin-2-yl-2-azabicyclo[3.1.0]hexane-3-carboxamide], the IC50 [3] is reported as > 10 µM and the IC50 [1] is reported as 33 µM.

In the case of `Cc1ccc(NC(=O)[C@H]2C[C@@H]3C[C@@H]3N2c2ncccn2)cc1-c1ncc(F)cn1` [Example 269, (1S,3R,5S)-N-[3-(5-fluoropyrimidin-2-yl)-4-methylphenyl]-2-pyrimidin-2-yl-2-azabicyclo[3.1.0]hexane-3-carboxamide], the IC50 [3] is reported as > 10 µM and the IC50 [1] is reported as 47 µM.

`Cc1ccc(NC(=O)[C@H]2[C@H](C)OCCN2c2ccccn2)cc1-c1ncc(F)cn1` [Example 270, (2S,3R)-N-(3-(5-fluoropyrimidin-2-yl)-4-methylphenyl)-2-methyl-4-(pyridin-2-yl)morpholine-3-carboxamide] gave an IC50 [3] of 1 to 10 µM and an IC50 [1] of 9.5 µM.

With `Cc1ccc(NC(=O)C2C3CC(C3)N2c2ccccn2)cc1-c1ncc(F)cn1` (stereo not drawn) [Example 271, N-(3-(5-fluoropyrimidin-2-yl)-4-methylphenyl)-2-(pyridin-2-yl)-2-azabicyclo[2.1.1]hexane-3-carboxamide] the IC50 [3] was > 10 µM and the IC50 [1] was 17 µM.

Work on `Cc1ccc(NC(=O)[C@H]2CC[C@@H](C(F)(F)F)N2c2ccccn2)cc1-c1ncc(F)cn1` [Example 276, (2R,5S)-N-[3-(5-fluoropyrimidin-2-yl)-4-methylphenyl]-1-pyridin-2-yl-5-(trifluoromethyl) pyrrolidine-2-carboxamide] yielded an IC50 [3] of 1 to 10 µM and an IC50 [1] of 6.3 µM.

In the case of `Cc1ccc(NC(=O)[C@H]2[C@@H](C)CCN2c2ccccn2)cc1-c1ncc(F)cn1` [Example 277, (2R,3S)-N-[3-(5-fluoropyrimidin-2-yl)-4-methylphenyl]-3-methyl-1-pyridin-2-ylpyrrolidine-2-carboxamide], the IC50 [3] is reported as 1 to 10 µM and the IC50 [1] is reported as 1.4 µM.

For `Cc1ccc(NC(=O)[C@H]2CCCN2c2ccccn2)cc1-c1ncc(F)cn1` [Example 279, (2R)-N-[3-(5-fluoropyrimidin-2-yl)-4-methylphenyl]-1-pyridin-2-ylpyrrolidine-2-carboxamide], the IC50 [3] was 1 to 10 µM and the IC50 [1] was 4.2 µM.

In the case of `Cc1ccc(NC(=O)[C@H]2CC[C@H](C)N2c2ccccn2)cc1-c1ncc(F)cn1` [Example 281, (2R,5S)-N-[3-(5-fluoropyrimidin-2-yl)-4-methylphenyl]-5-methyl-1-pyridin-2-ylpyrrolidine-2-carboxamide], the IC50 [3] is reported as 1 to 10 µM and the IC50 [1] is reported as 1.3 µM.

With `Cc1ccc(NC(=O)[C@H]2CC[C@@H](C)N2c2ccccn2)cc1-c1ncc(F)cn1` [Example 282, (2R,5R)-N-[3-(5-fluoropyrimidin-2-yl)-4-methylphenyl]-5-methyl-1-pyridin-2-ylpyrrolidine-2-carboxamide] the IC50 [3] was 1 to 10 µM and the IC50 [1] was 1.2 µM.

Compound `Cc1ccc(NC(=O)[C@H]2CC[C@@H](C)N2c2ccc(C#N)cn2)cc1-c1ncc(F)cn1` [Example 285, (2R,5R)-1-(5-cyanopyridin-2-yl)-N-[3-(5-fluoropyrimidin-2-yl)-4-methylphenyl]-5-methylpyrrolidine-2-carboxamide] has an IC50 [3] of 1 to 10 µM and an IC50 [1] of 2.2 µM.

In the case of `CC(=O)N1[C@H](C)CC[C@@H]1C(=O)Nc1ccc(C)c(-c2ncc(F)cn2)c1` [Example 286, (2R,5R)-1-acetyl-N-[3-(5-fluoropyrimidin-2-yl)-4-methylphenyl]-5-methylpyrrolidine-2-carboxamide], the IC50 [3] is reported as 1 to 10 µM and the IC50 [1] is reported as 1.7 µM.

`Cc1ccc(NC(=O)[C@H]2CC[C@@H](C)N2c2ncccn2)cc1-c1ncc(F)cn1` [Example 287, (2R,5R)-N-[3-(5-fluoropyrimidin-2-yl)-4-methylphenyl]-5-methyl-1-pyrimidin-2-ylpyrrolidine-2-carboxamide] gave an IC50 [3] of 1 to 10 µM and an IC50 [1] of 2.1 µM.

With `Cc1ccc(NC(=O)[C@H]2C3CC(F)(F)C[C@H]32)cc1-c1cccnn1` (stereo partly drawn) [Example 288, cis-3,3-difluoro-N-(4-methyl-3-pyridazin-3-ylphenyl)bicyclo[3.1.0] hexane-6-carboxamide] the IC50 [3] was > 10 µM and the IC50 [1] was 15 µM.

In the case of `Cc1ccc(NC(=O)[C@H]2[C@@H]3CC(F)(F)C[C@@H]32)cc1-c1cccnn1` [Example 289, trans-3,3-difluoro-N-(4-methyl-3-pyridazin-3-ylphenyl)bicyclo[3.1.0] hexane-6-carboxamide], the IC50 [3] is reported as > 10 µM and the IC50 [1] is reported as 26 µM.

In the case of `Cc1ccc(NC(=O)[C@@H]2C[C@@H]2c2ccccn2)cc1-c1cccnn1` [Example 291, (1R,2S)-N-(4-methyl-3-pyridazin-3-ylphenyl)-2-pyridin-2-ylcyclopropane-1-carboxamide], the IC50 [3] is reported as > 10 µM and the IC50 [1] is reported as 16 µM.

With `Cc1ccc(NC(=O)[C@H]2CC[C@H]3C[C@H]3N2c2ncccn2)cc1-c1ncc(F)cn1` [Example 292, (1R,3R,6S)-N-[3-(5-fluoropyrimidin-2-yl)-4-methylphenyl]-2-pyrimidin-2-yl-2-azabicyclo[4.1.0]heptane-3-carboxamide] the IC50 [3] was 1 to 10 µM and the IC50 [1] was 2 µM.

In the case of `Cc1ccc(NC(=O)[C@H]2C[C@@H](C(F)(F)F)CN2c2ncccn2)cc1-c1cccnn1` [Example 294, (2R,4R)-N-(4-methyl-3-pyridazin-3-ylphenyl)-1-pyrimidin-2-yl-4-(trifluoromethyl) pyrrolidine-2-carboxamide], the IC50 [3] is reported as 1 to 10 µM and the IC50 [1] is reported as 9.4 µM.

In the case of `Cc1ccc(NC(=O)C2(C3CCC3)CC2)cc1-c1cccnn1` [Example 295, 1-cyclobutyl-N-(4-methyl-3-pyridazin-3-ylphenyl)cyclopropane-1-carboxamide], the IC50 [3] is reported as > 10 µM and the IC50 [1] is reported as 13 µM.

Work on `Cc1ccc(NC(=O)C(C)(C)C2CCC2)cc1-c1cccnn1` [Example 296, 2-cyclobutyl-2-methyl-N-(4-methyl-3-pyridazin-3-ylphenyl)propanamide] yielded an IC50 [3] of 1 to 10 µM and an IC50 [1] of 4.3 µM.

In the case of `Cc1ccc(NC(=O)[C@H]2C[C@H]2c2ccccc2)cc1-c1cccnn1` [Example 298, (1S,2R)-N-(4-methyl-3-pyridazin-3-ylphenyl)-2-phenylcyclopropane-1-carboxamide], the IC50 [1] is reported as 0.6 µM and the IC50 [2] is reported as 0.0001 to 1 µM.

`Cc1ccc(NC(=O)[C@@H]2C[C@@H]2c2ccccc2)cc1-c1cccnn1` [Example 299, (1R,2S)-N-(4-methyl-3-pyridazin-3-ylphenyl)-2-phenylcyclopropane-1-carboxamide] was tested, and the IC50 [3] was > 10 µM and the IC50 [1] was 14 µM.

With `Cc1ccc(NC(=O)N2CCC3CC3CC2)cc1-c1ncc(F)cn1` (stereo not drawn) [Example 300, N-(3-(5-fluoropyrimidin-2-yl)-4-methylphenyl)-4-azabicyclo[5.1.0]octane-4-carboxamide] the IC50 [3] was 1 to 10 µM and the IC50 [1] was 1.2 µM.
